Data as given in the supplement of paper PMC11451515.

Test system: SEM cells
Assay: cell viability relative to DMSO control; higher = less cytotoxic
Details: 48 h
Outline: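 Viability, reported as a per-plate percentage of DMSO wells with cell-free wells as background, came from CellTiter-Glo One luminescence. Reading took place after 48 h at 37°C. Before that, NOMO1 or SEM (500 cells/well) or P12-Ichikawa (1000 cells/well) leukemia cells, adapted for at least four passages in each medium, were seeded in 1536-well plates (5 μl) and pin-dosed with library compounds in DMSO, 47 μM to 0.79 nM over 11 threefold points.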

[1] = HPLM + 10% dialyzed FBS, 0.000781 µM
[2] = HPLM + 10% dialyzed FBS, 0.00234 µM
[3] = HPLM + 10% dialyzed FBS, 0.00702 µM
[4] = HPLM + 10% dialyzed FBS, 0.0211 µM
[5] = HPLM + 10% dialyzed FBS, 0.0632 µM
[6] = HPLM + 10% dialyzed FBS, 0.19 µM
[7] = HPLM + 10% dialyzed FBS, 0.569 µM
[8] = HPLM + 10% dialyzed FBS, 1.71 µM
[9] = HPLM + 10% dialyzed FBS, 5.12 µM
[10] = HPLM + 10% dialyzed FBS, 15.4 µM
[11] = HPLM + 10% dialyzed FBS, 46.1 µM
[12] = RPMI 5 mM glucose + 10% FBS, 0.000781 µM
[13] = RPMI 5 mM glucose + 10% FBS, 0.00234 µM
[14] = RPMI 5 mM glucose + 10% FBS, 0.00702 µM
[15] = RPMI 5 mM glucose + 10% FBS, 0.0211 µM
[16] = RPMI 5 mM glucose + 10% FBS, 0.0632 µM
[17] = RPMI 5 mM glucose + 10% FBS, 0.19 µM
[18] = RPMI 5 mM glucose + 10% FBS, 0.569 µM
[19] = RPMI 5 mM glucose + 10% FBS, 1.71 µM
[20] = RPMI 5 mM glucose + 10% FBS, 5.12 µM
[21] = RPMI 5 mM glucose + 10% FBS, 15.4 µM
[22] = RPMI 5 mM glucose + 10% FBS, 46.1 µM
[23] = RPMI 5 mM glucose + 10% dialyzed FBS, 0.000781 µM
[24] = RPMI 5 mM glucose + 10% dialyzed FBS, 0.00234 µM
[25] = RPMI 5 mM glucose + 10% dialyzed FBS, 0.00702 µM
[26] = RPMI 5 mM glucose + 10% dialyzed FBS, 0.0211 µM
[27] = RPMI 5 mM glucose + 10% dialyzed FBS, 0.0632 µM
[28] = RPMI 5 mM glucose + 10% dialyzed FBS, 0.19 µM
[29] = RPMI 5 mM glucose + 10% dialyzed FBS, 0.569 µM
[30] = RPMI 5 mM glucose + 10% dialyzed FBS, 1.71 µM
[31] = RPMI 5 mM glucose + 10% dialyzed FBS, 5.12 µM
[32] = RPMI 5 mM glucose + 10% dialyzed FBS, 15.4 µM
[33] = RPMI 5 mM glucose + 10% dialyzed FBS, 46.1 µM

Row | SMILES | cell viability [1] | cell viability [2] | cell viability [3] | cell viability [4] | cell viability [5] | cell viability [6] | cell viability [7] | cell viability [8] | cell viability [9] | cell viability [10] | cell viability [11] | cell viability [12] | cell viability [13] | cell viability [14] | cell viability [15] | cell viability [16] | cell viability [17] | cell viability [18] | cell viability [19] | cell viability [20] | cell viability [21] | cell viability [22] | cell viability [23] | cell viability [24] | cell viability [25] | cell viability [26] | cell viability [27] | cell viability [28] | cell viability [29] | cell viability [30] | cell viability [31] | cell viability [32] | cell viability [33]
1 | CCCC[N+]1(C)[C@@H]2CC(OC(=O)[C@H](CO)c3ccccc3)C[C@H]1[C@@H]1O[C@@H]12 (some centres undefined) | 112% | 113% | 120% | 125% | 118% | 126% | 110% | 127% | 109% | 131% | 123% | – | – | – | – | – | – | – | – | – | – | – | – | – | – | – | – | – | – | – | – | – | –
2 | O=C1N\N=C(\C[C@@H]2CCN(C2)C(=O)C3CC3)N1C4=CC=C(C=C4)C5=CC=C6OC=CC6=C5 | 77.5% | 76.9% | 80.2% | 85.4% | 70.8% | 61.7% | 78.5% | 71.3% | 77.8% | 37.1% | 45.6% | 109% | 116% | 120% | 107% | 113% | 76.7% | 110% | 97.1% | 125% | 64.3% | 51.9% | 73.3% | 65% | 79.9% | 84.3% | 81.5% | 56.5% | 80.1% | 82.3% | 96.6% | 46.5% | 31.7%
3 | CCNC(=O)c1noc(-c2cc(C(C)C)c(O)cc2O)c1-c1ccc(CN2CCOCC2)cc1 | 90.6% | 97.5% | 92.4% | 103% | 31.8% | 21.1% | 20.2% | 20.9% | 19.6% | 17.3% | 14.2% | 95.2% | 102% | 102% | 102% | 27.1% | 21.6% | 19.8% | 19.6% | 19.4% | 14.1% | 7.66% | 101% | 95.7% | 89.5% | 99.5% | 36.1% | 24.9% | 26.4% | 22.6% | 18.6% | 19.2% | 11.2%
4 | Cc1ccc([S+](=O)([O-])NC(=O)NN2CC3CCCC3C2)cc1 (centres undefined) | 57.6% | 102% | 89.1% | 106% | 101% | 100% | 96.9% | 86.1% | 58.7% | 18.7% | 9.78% | 55.2% | 93.6% | 77.9% | 94.5% | 106% | 94.4% | 80.8% | 76.6% | 43.7% | 14.9% | 9.35% | 50.2% | 98.7% | 84.5% | 96.6% | 109% | 87.8% | 84.7% | 67.7% | 39.3% | 26.8% | 13.1%
5 | CNC(=O)c1cc(Oc2ccc(NC(=O)Nc3ccc(Cl)c(C(F)(F)F)c3)c(F)c2)ccn1 | 83.2% | 91.4% | 91.1% | 78.4% | 84.3% | 80.6% | 39.7% | 43.7% | 35.3% | 25.9% | 25.1% | 97% | 101% | 112% | 114% | 73.8% | 89.4% | 44.1% | 44.1% | 31.6% | 27.2% | 21.8% | 86.9% | 96.7% | 82.1% | 84% | 61.7% | 73.6% | 47.3% | 31.7% | 26.9% | 18.8% | 20.3%
6 | CN1CCN(CC1)C/2=N/C3=CC=CC=C3NC4=C2C=C(C)S4 | 91% | 105% | 114% | 106% | 102% | 119% | 115% | 114% | 117% | 119% | 105% | 99.3% | 97.4% | 87.4% | 88.6% | 96.2% | 104% | 95.5% | 94.5% | 101% | 94.2% | 88.6% | 95.6% | 99.3% | 105% | 89.4% | 97.1% | 118% | 112% | 110% | 96% | 100% | 93.3%
7 | CO[C@H]1C[C@H]2OC[C@@]2(OC(C)=O)[C@H]3[C@H](OC(=O)C4=CC=CC=C4)[C@]5(O)C[C@H](OC(=O)[C@H](O)[C@@H](NC(=O)OC(C)(C)C)C6=CC=CC=C6)/C(=C(/[C@@H](OC)C(=O)[C@]13C)C5(C)C)C | 61.3% | 70.2% | 80.6% | 15.4% | 16.5% | 17.7% | 16% | 15% | 18.1% | 13.6% | 15.8% | 89.4% | 96.1% | 11.1% | 9.9% | 12.3% | 14% | 11.2% | 15.1% | 12.7% | 13.2% | 13.4% | 64% | 61.2% | 80.6% | 11.2% | 13.9% | 13.5% | 14.1% | 13.7% | 13.2% | 11.6% | 11.8%
